For series [1], the system named is P-gp (human MDR1). Briefly: Efflux ratio of permeability in dog MDCK2 expressing human MDR1 cells by PGP assay. The format is ADME, cell-based, Canis lupus familiaris, MDCK-II. The conditions noted are these: MDCK-MDR1.
The next series deals with Cytochrome P450 2C9 (Homo sapiens, UniProt P11712). Briefly: Inhibition of CYP2C9. The format is ADME.
Series [2] can be described thus: Solubility of the compound in simulated gastric fluid after 0.5 hrs. Format: physicochemical.
Series [3] deals with P-gp (human MDR1). Briefly: Permeability of the compound from apical to basolateral direction in dog MDCK2 expressing human MDR1 cells by PGP assay. The conditions noted are these: MDCK-MDR1, read-out: permeability. Format: ADME, cell-based, Canis lupus familiaris, MDCK-II.
Series [4] concerns Liver microsomes. Briefly: Intrinsic clearance in human liver microsome. The format is ADME. Background: Microsomes from liver hold many membrane-bound enzymes, among them those of drug oxidation.
Series [5] has as its system Liver microsomes. Briefly: Intrinsic clearance in rat liver microsome. Format: ADME.
The next series addresses Cytochrome P450 2C19 (Homo sapiens, UniProt P33261). Briefly: Inhibition of CYP2C19. Format: ADME.
Series [6] addresses T1, Cytochrome P450 3A4 (Homo sapiens, UniProt P08684). Briefly: Inhibition of CYP3A4 using 7-benzyloxyquinoline as substrate. The format is ADME.
Series [7] can be described thus: Solubility of the compound in fasted state simulated intestinal fluid after 0.5 hrs. Format: physicochemical.
In series [8] the target is T1, Cytochrome P450 3A4. Briefly: Inhibition of CYP3A4 using DEF substrate. Format: ADME.
Series [9] can be described thus: Fraction unbound in rat blood. The format is ADME, tissue-based.
The test system of the next series is Rattus norvegicus. Briefly: Blood clearance at steady state in rat at 2 mg/kg/h, iv. Also noted: route intravenous. The conditions noted are these: in vivo. Format: ADME, organism-based.
Series [10] deals with T2, Peroxisome proliferator-activated receptor gamma (Homo sapiens) (UniProt P37231).
T2 sequence (whole entry): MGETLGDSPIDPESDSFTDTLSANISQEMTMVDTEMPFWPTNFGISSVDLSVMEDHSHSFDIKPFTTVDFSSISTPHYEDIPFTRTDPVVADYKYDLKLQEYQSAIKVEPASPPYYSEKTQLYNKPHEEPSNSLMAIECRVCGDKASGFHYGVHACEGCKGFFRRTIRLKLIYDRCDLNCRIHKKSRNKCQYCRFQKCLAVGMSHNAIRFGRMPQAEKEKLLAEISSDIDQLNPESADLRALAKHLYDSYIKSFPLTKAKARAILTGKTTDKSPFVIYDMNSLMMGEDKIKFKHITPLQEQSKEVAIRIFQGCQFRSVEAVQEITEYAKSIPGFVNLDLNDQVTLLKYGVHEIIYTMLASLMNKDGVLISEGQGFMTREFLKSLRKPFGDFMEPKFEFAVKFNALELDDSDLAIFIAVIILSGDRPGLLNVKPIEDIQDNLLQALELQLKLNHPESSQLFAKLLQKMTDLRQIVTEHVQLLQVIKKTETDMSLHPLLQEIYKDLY
Briefly: Activity at human PPARgamma by luciferase reporter gene assay. Also noted: concentration or dose not given beside the values.

Series [11] addresses T3, Peroxisome proliferator-activated receptor gamma (Homo sapiens, UniProt P37231).
T3 sequence (P37231 whole entry): T2 sequence (whole entry)
Briefly: Partial agonist activity at human PPARgamma by luciferase reporter gene assay. Format: functional.

Another series has as its target T4, Cytochrome P450 1A2 (Homo sapiens, UniProt P05177).
T4 sequence (P05177 whole entry): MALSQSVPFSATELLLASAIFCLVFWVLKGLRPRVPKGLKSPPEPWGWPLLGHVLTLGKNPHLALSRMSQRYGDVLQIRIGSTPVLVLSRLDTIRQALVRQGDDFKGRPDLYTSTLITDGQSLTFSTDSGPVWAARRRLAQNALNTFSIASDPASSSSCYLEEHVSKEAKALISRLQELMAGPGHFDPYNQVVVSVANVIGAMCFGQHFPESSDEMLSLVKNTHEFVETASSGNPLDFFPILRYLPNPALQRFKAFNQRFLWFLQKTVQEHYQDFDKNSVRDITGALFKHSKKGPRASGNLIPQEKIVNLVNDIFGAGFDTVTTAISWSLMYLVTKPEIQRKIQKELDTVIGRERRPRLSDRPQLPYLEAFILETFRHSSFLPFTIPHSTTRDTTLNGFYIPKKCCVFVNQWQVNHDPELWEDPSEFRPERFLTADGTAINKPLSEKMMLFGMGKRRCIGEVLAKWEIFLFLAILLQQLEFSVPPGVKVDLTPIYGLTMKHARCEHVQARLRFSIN
Briefly: Inhibition of CYP1A2. The format is ADME.

Series [12] is described as follows: Solubility of the compound in water after 0.5 hrs. Format: physicochemical.
Series [13] is described as follows: Ratio of drug uptake in brain to blood at steady state in rat at 2 mg/kg/h, iv. The format is ADME, organism-based. Also noted: route intravenous.
A further series deals with Liver. Briefly: Intrinsic clearance in rat liver S9 fraction. The format is ADME, subcellular.
For another series, the target named is Cytochrome P450 2D6 (Homo sapiens, UniProt P10635). Briefly: Inhibition of CYP2D6. Format: ADME.
The subject of series [14] is Brain. Briefly: Drug uptake in rat brain at steady state at 2 mg/kg/h, iv. Also on record: route intravenous. The format is ADME, organism-based. The conditions noted are these: in vivo, read-out: Drug uptake.
The test system of series [15] is Brain. Briefly: Free drug level rat brain at 1 mg/kg, iv. The format is ADME, organism-based. Also noted: dose 1 mg/kg, route intravenous. The conditions noted are these: in vivo.
Series [16] can be described thus: Solubility of the compound in fed state simulated intestinal fluid after 0.5 hrs. The format is physicochemical.
A short description of series [17]: Fraction unbound in rat brain. The format is ADME, tissue-based.

The values below come from ChEMBL document CHEMBL1821577, “Discovery of GSK1997132B a novel centrally penetrant benzimidazole PPARγ partial agonist” (Bioorg Med Chem Lett, 2011).

Molecules are shown by their SMILES. In brackets after ≈: the same amount, converted by molar mass. Some results are limits rather than exact numbers.

T1 sequence (P08684 whole entry): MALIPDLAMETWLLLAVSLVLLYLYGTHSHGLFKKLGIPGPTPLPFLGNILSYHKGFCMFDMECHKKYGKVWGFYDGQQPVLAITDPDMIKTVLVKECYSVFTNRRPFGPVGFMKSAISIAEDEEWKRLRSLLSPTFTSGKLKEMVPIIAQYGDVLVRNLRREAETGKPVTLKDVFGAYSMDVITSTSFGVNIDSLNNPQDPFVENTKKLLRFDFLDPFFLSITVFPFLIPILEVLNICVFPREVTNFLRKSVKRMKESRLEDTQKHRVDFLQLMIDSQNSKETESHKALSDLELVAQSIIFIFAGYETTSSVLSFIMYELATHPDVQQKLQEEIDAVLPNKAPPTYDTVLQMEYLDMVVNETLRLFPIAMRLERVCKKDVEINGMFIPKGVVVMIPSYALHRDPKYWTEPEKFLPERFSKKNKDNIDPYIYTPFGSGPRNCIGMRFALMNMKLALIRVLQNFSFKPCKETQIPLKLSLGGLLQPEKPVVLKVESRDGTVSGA
Cytochrome P450 2C9, sequence (P11712 whole entry): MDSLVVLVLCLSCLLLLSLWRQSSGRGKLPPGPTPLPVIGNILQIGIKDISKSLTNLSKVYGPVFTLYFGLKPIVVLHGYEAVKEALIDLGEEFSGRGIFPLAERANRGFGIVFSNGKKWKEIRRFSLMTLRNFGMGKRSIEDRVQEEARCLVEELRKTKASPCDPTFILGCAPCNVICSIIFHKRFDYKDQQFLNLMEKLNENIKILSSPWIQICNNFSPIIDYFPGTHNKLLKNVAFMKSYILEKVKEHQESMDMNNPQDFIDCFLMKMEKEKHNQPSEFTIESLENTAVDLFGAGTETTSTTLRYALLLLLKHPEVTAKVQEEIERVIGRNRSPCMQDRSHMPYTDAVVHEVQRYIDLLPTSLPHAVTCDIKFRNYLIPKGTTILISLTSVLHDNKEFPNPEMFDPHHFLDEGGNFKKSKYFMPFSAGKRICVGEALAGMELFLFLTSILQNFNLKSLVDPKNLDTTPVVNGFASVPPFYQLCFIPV
Cytochrome P450 2D6, sequence (P10635 whole entry): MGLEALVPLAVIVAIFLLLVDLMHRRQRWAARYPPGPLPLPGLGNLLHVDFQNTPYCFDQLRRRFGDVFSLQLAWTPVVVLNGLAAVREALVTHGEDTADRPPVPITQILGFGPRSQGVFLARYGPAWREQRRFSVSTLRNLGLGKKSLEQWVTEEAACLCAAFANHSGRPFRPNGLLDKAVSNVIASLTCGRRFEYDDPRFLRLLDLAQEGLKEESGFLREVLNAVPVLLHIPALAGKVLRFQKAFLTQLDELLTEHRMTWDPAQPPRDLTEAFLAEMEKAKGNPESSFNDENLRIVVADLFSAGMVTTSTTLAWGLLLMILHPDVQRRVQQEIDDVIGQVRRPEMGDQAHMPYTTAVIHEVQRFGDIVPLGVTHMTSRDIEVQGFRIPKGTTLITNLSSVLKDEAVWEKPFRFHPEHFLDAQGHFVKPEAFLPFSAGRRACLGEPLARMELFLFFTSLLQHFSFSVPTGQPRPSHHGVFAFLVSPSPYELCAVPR
Cytochrome P450 2C19, sequence (P33261 whole entry): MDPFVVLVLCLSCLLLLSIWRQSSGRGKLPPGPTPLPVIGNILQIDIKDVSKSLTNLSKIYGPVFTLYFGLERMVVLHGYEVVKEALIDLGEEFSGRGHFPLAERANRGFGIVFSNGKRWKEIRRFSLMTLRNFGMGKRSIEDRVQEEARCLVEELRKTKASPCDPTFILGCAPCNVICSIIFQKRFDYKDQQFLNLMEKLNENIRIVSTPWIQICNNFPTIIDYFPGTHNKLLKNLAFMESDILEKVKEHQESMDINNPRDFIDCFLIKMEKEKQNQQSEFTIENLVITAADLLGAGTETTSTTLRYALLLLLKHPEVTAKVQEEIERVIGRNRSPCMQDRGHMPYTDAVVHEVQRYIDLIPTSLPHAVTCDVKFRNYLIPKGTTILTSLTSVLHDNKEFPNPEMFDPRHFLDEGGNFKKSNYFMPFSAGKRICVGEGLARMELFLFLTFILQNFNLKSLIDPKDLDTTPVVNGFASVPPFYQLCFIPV

In general, efflux ratio refers to a quotient of directional permeabilities that is used to spot active efflux. By IC50 is commonly meant the concentration that inhibits the measured activity by half. What is called solubility is the concentration that dissolves in the medium under given conditions. In general, fraction unbound refers to free concentration divided by total concentration. Usually clearance stands for the rate of elimination divided by the concentration. As a reminder, the EC50 is the concentration needed to bring the measured effect to its halfway point. In general, Kp refers to tissue or fluid exposure divided by exposure in the circulation. With `CC[C@@H](NC(=O)c1ccc2c(c1)ncn2Cc1ncc(F)cc1F)c1ccccc1`, the efflux ratio with P-gp (human MDR1) [1] came to 1.6. The IC50 at Cytochrome P450 2C9 was 42 µM; against Cytochrome P450 2C19 it was 87 µM; against Cytochrome P450 3A4 [6], over 100 µM; against Cytochrome P450 3A4 [8] it was 45 µM; on Cytochrome P450 1A2, 14 µM; at Cytochrome P450 2D6, 65 µM. Further, the solubility at 0.5 h in series [2] was over 1000 µg/mL; in [7], 80 µg/mL (≈ 197 µM); in series [12], 330 µg/mL (≈ 812 µM); in series [16], 220 µg/mL (≈ 541 µM). In the series with P-gp (human MDR1) [3], the Papp A→B was 122 ×10⁻⁶ cm/s. Also, the figures for the CL in the series on Liver microsomes [4], in the series on Liver microsomes [5] and with Liver were 0.5 mL/min/g, 1.2 mL/min/g and 1.6 mL/min/g, respectively. For the same compound, the fraction unbound in [9] was 0.175; in series [17], 0.115. The clearance with Rattus norvegicus was 30 mL/min/kg. The compound further gave an Activity in series [10] of 68%. It took 0.01 µM to reach a half-maximal effect in series [11] (EC50). Besides, the Kp in [13] worked out at 0.22. In addition, in the series on Brain [14], the concentration came to 446 nM. Also, in the series with Brain [15], the Drug uptake was found to be 51 nM.
